Like-named read-outs stand apart in the source and are kept apart here.
System: children with EE
Type: in vivo, human
Source text: Patient 1 was a person with a history of abdominal pain, failure to thrive, and vomiting since infancy, and developmental delay with isolated EE diagnosed in 2001. Their allergic history was significant for allergic rhinitis secondary to cat, dog, and dust mite exposure as well as positive Pharmacia CAP radioallergosorbent testing for fish and milk. […] They were referred to Children's Hospital Eosinophilic Gastrointestinal Disorders clinic for further management of EE recalcitrant to usual therapy. At the time of their referral, they continued to have vomiting and poor weight gain and their parent reported significant difficulty with the puff and swallow technique. They were placed on a regimen of twice daily oral budesonide suspension (Pulmicort®) 500 micrograms (4 ml) mixed with about 10 packets (1 gram each) sucralose (Splenda®), a non-absorbed sugar in order to increase fluid viscosity to be swallowed twice daily. The total volume of the preparation was about 7 to 8 ml. […] Eight am cortisol was 13.2 mcg/dL (normal range for age 3-15 mcg/dL) after four months of therapy.
Patient 2 was a child with a history of developmental delay, abdominal pain, and RAST positivity for milk, egg, and wheat. […] They were placed on a hydrolyzed formula containing milk protein (Peptamen Jr®), omeprazole 10 mg twice daily and oral cromolyn (Gastrocrom®) 100 mg four times daily. […] They were referred to the Children's Hospital Eosinophilic Gastrointestinal Disorders clinic for further management. […] After two months of elemental formula and oral cromolyn sodium, EGD was unchanged with a pale, furrowed esophagus and maximal eosinophil counts of 100, 90, and 70 per hpf in the distal, mid, and proximal esophagus with diffuse basal zone hyperplasia. Their developmental delay precluded the use of a fluticasone inhaler devise with puff and swallow technique. As an alternative, they received oral budesonide 500 micrograms (Pulmicort®) mixed with sucralose (Splenda®) twice daily as topical esophageal therapy.

[1] = Patient 2, elemental formula and oral cromolyn sodium, two months
[2] = Patient 2, hydrolyzed formula, omeprazole and oral cromolyn 100 mg four times daily, 12 months

SMILES: CCCC1O[C@@H]2C[C@H]3[C@@H]4CCC5=CC(=O)C=C[C@]5(C)[C@H]4[C@@H](O)C[C@]3(C)[C@]2(C(=O)CO)O1 (stereo partly drawn) [budesonide, 16,17-(butylidenebis(oxy))-11,21-dihydroxy-, (11-β,16-α)-pregna-1,4-diene-3,20-dione]
- maximum eosinophil count, proximal esophagus (Patient 2 (70 before), oral budesonide 500 micrograms mixed with sucralose twice daily, 3 months): 5 per hpf
- maximum eosinophil count, mid esophagus (Patient 2 (90 before), oral budesonide 500 micrograms mixed with sucralose twice daily, 3 months): 20 per hpf
- maximum eosinophil count, distal esophagus (Patient 2 (100 before), oral budesonide 500 micrograms (Pulmicort) mixed with sucralose twice daily, 3 months): 28 per hpf

SMILES: O=C(O)c1cc(=O)c2c(OCC(O)COc3cccc4oc(C(=O)O)cc(=O)c34)cccc2o1 [cromolyn]
- maximum eosinophil count, distal esophagus (Patient 2 (40 per hpf before), hydrolyzed formula (Peptamen Jr), omeprazole 10 mg twice daily and oral cromolyn 100 mg four times daily, 12 months): 94 per hpf
- maximal eosinophil count, distal esophagus [1]: 100 per hpf
- maximal eosinophil count, mid esophagus [1]: 90 per hpf
- maximal eosinophil count, proximal esophagus [1]: 70 per hpf
- maximum eosinophil count, mid esophagus [2]: 65 per hpf
- maximum eosinophil count, proximal esophagus [2]: 90 per hpf

SMILES: C[C@]12C=CC(=O)C=C1CC[C@@H]1[C@@H]2C(=O)C[C@@]2(C)[C@H]1CC[C@]2(O)C(=O)CO [prednisone]
- maximum eosinophils per hpf on repeat EGD with biopsy (Patient 1 (EE, 60 per hpf at diagnosis), oral prednisone 0.5 mg per kg daily for one month): 2 per hpf

SMILES: CCC(=O)O[C@]1(C(=O)SCF)[C@H](C)C[C@H]2[C@@H]3C[C@H](F)C4=CC(=O)C=C[C@]4(C)[C@@]3(F)[C@@H](O)C[C@@]21C [fluticasone]
- maximal eosinophil count (Patient 1, elemental formula and fluticasone, accompanied by basal zone hyperplasia): 74 per hpf
- maximum eosinophil count (Patient 1, omeprazole 10 mg twice daily and fluticasone 220 ug twice daily, after 6 months): 50 per hpf

Reference: US11413296B2, “Viscous budesonide for the treatment of inflammatory diseases of the gastrointestinal tract” (The Regents of the University of California, priority 2005, dated 2022)
